Source: patent US12365696B2, “Small-molecule focal adhesion kinase (FAK) inhibitors” (DANA-FARBER CANCER INSTITUTE, INC., priority 2019, dated 2025)

Assays:
Experiment in all cases: KINOMEscan
Type in all cases: binding
[1] = biological target: CDK2 (Homo sapiens (Human), UniProt P24941); conditions: CDK2, 10000 nM; read-out: Percent Control
[2] = biological target: KIT-autoinhibited (Homo sapiens (Human), UniProt P10721); conditions: 10000 nM, read-out: Percent Control
[3] = biological target: MAP3K2 (Homo sapiens (Human), UniProt Q9Y2U5); conditions: MAP3K2, 10000 nM; read-out: Percent Control
[4] = biological target: IRAK4 (Homo sapiens (Human), UniProt Q9NWZ3); conditions: IRAK4, 10000 nM; read-out: Percent Control
[5] = biological target: EGFR(E746-A750del) (Homo sapiens (Human), UniProt P00533, DEL746-750); conditions: 10000 nM, read-out: Percent Control
[6] = biological target: MRCKB (Homo sapiens (Human), UniProt Q9Y5S2); conditions: 10000 nM, read-out: Percent Control
[7] = biological target: CLK3 (Homo sapiens (Human), UniProt P49761); conditions: CLK3, 10000 nM; read-out: Percent Control
[8] = biological target: TNNI3K (Homo sapiens (Human), UniProt Q59H18); conditions: 10000 nM, read-out: Percent Control
[9] = biological target: MEK5 (Homo sapiens (Human), UniProt Q13163); conditions: MEK5, 10000 nM; read-out: Percent Control
[10] = biological target: MARK2 (Homo sapiens (Human), UniProt Q7KZI7); conditions: MARK2, 10000 nM; read-out: Percent Control
[11] = biological target: MST1 (Homo sapiens (Human), UniProt Q13043); conditions: MST1, 10000 nM; read-out: Percent Control
[12] = biological target: TGFBR2 (Homo sapiens (Human), UniProt P37173); conditions: TGFBR2, 10000 nM; read-out: Percent Control
[13] = biological target: RSK4(Kin.Dom.2-C-terminal) (Homo sapiens (Human), UniProt Q9UK32); conditions: 10000 nM, read-out: Percent Control
[14] = biological target: ITK (Homo sapiens (Human), UniProt Q08881); conditions: 10000 nM, read-out: Percent Control
[15] = biological target: PLK1 (Homo sapiens (Human), UniProt P53350); conditions: PLK1, 10000 nM; read-out: Percent Control
[16] = biological target: STK36 (Homo sapiens (Human), UniProt Q9NRP7); conditions: STK36, 10000 nM; read-out: Percent Control
[17] = biological target: RIPK5 (Homo sapiens (Human), UniProt Q6XUX3); conditions: RIPK5, 10000 nM; read-out: Percent Control
[18] = biological target: ZAP70 (Homo sapiens (Human), UniProt P43403); conditions: ZAP70, 10000 nM; read-out: Percent Control
[19] = biological target: LRRK2 (Homo sapiens (Human), UniProt Q5S007); conditions: LRRK2, 10000 nM; read-out: Percent Control
[20] = biological target: PFCDPK1(P. falciparum) (Plasmodium falciparum (isolate 3D7), UniProt P62344); conditions: 10000 nM, read-out: Percent Control
[21] = biological target: PIK3CA(E542K) (Homo sapiens (Human), UniProt P42336, E542K); conditions: 10000 nM, read-out: Percent Control
[22] = biological target: PIP5K1A (Homo sapiens (Human), UniProt Q99755); conditions: 10000 nM, read-out: Percent Control
[23] = biological target: MAP3K4 (Homo sapiens (Human), UniProt Q9Y6R4); conditions: MAP3K4, 10000 nM; read-out: Percent Control
[24] = biological target: RAF1 (Homo sapiens (Human), UniProt P04049); conditions: RAF1, 10000 nM; read-out: Percent Control
[25] = biological target: p38-beta (Homo sapiens (Human), UniProt Q15759); conditions: 10000 nM, read-out: Percent Control
[26] = biological target: SLK (Homo sapiens (Human), UniProt Q9H2G2); conditions: 10000 nM, read-out: Percent Control
[27] = biological target: RSK3(Kin.Dom.1-N-terminal) (Homo sapiens (Human), UniProt Q15349); conditions: 10000 nM, read-out: Percent Control
[28] = biological target: TAOK2 (Homo sapiens (Human), UniProt Q9UL54); conditions: TAOK2, 10000 nM; read-out: Percent Control
[29] = biological target: PKN2 (Homo sapiens (Human), UniProt Q16513); conditions: PKN2, 10000 nM; read-out: Percent Control
[30] = biological target: PAK3 (Homo sapiens (Human), UniProt O75914); conditions: PAK3, 10000 nM; read-out: Percent Control
[31] = biological target: ABL2 (Homo sapiens (Human), UniProt P42684); conditions: ABL2, 10000 nM; read-out: Percent Control
[32] = biological target: ABL1(H396P)-nonphosphorylated (Homo sapiens (Human), UniProt P00519, H396P); conditions: 10000 nM, read-out: Percent Control
[33] = biological target: RIOK3 (Homo sapiens (Human), UniProt O14730); conditions: RIOK3, 10000 nM; read-out: Percent Control
[34] = system: FLT3(ITD); conditions: 10000 nM

Sequence of TGFBR2 (P37173 23-567): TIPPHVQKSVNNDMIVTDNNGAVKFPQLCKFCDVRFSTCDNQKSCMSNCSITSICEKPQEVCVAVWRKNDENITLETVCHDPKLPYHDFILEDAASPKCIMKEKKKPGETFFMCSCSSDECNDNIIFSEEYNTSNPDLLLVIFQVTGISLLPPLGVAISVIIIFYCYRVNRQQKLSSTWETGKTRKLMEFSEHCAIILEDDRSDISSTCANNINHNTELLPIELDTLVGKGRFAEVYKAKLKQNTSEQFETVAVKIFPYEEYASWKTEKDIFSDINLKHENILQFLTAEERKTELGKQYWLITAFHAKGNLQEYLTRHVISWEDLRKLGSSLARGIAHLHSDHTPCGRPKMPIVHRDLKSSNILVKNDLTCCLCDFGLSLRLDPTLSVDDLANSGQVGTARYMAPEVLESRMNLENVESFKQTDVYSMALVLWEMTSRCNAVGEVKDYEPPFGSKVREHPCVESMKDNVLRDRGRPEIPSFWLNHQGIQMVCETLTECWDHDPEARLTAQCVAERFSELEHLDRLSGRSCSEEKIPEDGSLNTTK
Sequence of MEK5 (Q13163 whole entry): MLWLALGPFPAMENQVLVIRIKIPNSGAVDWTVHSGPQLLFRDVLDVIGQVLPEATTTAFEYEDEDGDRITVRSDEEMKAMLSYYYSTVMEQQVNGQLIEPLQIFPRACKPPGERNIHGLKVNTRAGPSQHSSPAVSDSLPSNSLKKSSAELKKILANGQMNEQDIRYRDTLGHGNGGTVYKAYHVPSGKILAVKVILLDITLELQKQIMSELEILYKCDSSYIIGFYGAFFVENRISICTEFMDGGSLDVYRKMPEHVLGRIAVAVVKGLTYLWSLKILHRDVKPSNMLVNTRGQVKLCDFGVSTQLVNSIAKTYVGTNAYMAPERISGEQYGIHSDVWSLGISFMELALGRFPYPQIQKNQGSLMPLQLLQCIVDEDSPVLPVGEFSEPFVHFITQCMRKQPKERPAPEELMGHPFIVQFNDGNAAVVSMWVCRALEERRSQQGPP
Sequence of PIK3CA(E542K) (P42336 whole entry E542K): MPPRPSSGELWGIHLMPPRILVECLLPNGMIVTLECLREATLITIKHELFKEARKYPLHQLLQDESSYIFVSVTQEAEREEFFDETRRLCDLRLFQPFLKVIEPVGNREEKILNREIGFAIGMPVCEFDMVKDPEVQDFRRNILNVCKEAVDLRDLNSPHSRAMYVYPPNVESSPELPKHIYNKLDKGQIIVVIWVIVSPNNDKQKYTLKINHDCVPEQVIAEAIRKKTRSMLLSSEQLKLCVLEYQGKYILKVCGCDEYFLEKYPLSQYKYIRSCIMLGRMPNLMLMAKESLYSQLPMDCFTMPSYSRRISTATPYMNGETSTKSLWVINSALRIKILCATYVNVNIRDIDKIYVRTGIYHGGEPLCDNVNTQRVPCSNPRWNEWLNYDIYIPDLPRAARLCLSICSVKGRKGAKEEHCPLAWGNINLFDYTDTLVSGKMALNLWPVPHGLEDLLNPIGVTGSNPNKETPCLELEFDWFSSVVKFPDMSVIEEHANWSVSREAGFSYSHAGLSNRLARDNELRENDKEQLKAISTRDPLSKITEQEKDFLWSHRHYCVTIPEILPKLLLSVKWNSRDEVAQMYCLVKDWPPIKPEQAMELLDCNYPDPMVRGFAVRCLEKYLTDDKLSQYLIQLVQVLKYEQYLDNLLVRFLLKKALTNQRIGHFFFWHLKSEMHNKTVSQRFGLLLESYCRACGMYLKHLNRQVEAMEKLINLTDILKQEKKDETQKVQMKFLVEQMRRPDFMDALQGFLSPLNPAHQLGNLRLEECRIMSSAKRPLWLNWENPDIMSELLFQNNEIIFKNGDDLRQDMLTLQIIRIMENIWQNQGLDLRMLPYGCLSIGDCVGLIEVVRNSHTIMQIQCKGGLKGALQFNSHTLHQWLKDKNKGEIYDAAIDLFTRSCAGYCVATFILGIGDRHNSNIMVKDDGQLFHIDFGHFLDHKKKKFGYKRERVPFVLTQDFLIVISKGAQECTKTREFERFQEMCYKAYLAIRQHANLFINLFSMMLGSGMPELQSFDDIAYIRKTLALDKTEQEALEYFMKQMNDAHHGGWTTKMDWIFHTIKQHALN
Sequence of RAF1 (P04049 whole entry): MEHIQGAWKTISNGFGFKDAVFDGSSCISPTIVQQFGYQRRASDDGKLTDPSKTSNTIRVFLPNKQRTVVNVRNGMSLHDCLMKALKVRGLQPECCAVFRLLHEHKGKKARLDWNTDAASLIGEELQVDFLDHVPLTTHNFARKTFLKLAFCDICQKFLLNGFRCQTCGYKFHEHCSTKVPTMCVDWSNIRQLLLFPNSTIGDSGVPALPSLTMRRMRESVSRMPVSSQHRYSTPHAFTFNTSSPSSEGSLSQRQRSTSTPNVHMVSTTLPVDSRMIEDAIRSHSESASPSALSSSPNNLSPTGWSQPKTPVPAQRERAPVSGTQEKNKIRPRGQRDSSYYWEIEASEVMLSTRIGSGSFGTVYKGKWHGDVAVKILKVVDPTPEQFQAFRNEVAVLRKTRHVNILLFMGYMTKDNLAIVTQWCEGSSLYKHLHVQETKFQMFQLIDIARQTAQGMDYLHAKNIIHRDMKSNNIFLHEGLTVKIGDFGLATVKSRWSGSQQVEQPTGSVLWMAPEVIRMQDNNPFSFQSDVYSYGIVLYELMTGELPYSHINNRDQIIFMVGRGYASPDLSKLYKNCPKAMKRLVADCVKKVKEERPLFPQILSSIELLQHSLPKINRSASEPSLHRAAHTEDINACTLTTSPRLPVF
Sequence of EGFR(E746-A750del) (P00533 other isoform, or with tags, fused parts or gaps, stated change not applied): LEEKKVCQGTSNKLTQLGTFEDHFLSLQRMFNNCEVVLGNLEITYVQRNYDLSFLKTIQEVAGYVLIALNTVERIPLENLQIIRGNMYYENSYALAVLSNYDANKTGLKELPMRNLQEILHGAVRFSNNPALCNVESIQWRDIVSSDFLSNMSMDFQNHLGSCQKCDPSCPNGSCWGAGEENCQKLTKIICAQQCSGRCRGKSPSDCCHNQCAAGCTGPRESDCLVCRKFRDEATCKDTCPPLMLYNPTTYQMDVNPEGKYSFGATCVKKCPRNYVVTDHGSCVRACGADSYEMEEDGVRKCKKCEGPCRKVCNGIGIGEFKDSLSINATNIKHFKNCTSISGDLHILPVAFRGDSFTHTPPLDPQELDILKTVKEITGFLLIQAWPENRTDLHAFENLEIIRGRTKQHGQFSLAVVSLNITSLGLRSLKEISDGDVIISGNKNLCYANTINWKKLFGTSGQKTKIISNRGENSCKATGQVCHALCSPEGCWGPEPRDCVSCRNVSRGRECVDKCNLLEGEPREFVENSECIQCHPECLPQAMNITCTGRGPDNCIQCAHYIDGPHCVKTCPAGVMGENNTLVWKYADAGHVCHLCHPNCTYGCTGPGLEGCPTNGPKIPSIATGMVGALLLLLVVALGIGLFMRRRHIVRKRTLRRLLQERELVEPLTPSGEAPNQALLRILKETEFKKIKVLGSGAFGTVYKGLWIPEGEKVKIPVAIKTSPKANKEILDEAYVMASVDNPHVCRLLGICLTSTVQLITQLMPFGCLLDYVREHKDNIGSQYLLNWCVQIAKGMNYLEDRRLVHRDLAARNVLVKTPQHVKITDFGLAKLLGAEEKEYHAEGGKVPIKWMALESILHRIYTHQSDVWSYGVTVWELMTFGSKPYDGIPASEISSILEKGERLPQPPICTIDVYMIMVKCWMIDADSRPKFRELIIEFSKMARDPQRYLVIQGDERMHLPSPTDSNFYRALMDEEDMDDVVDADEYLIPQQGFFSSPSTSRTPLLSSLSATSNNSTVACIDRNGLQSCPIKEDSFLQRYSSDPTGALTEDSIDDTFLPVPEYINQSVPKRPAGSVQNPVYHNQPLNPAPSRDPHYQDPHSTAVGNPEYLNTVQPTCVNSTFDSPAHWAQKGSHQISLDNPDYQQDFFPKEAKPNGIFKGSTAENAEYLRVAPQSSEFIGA
Sequence of RIPK5 (Q6XUX3 whole entry): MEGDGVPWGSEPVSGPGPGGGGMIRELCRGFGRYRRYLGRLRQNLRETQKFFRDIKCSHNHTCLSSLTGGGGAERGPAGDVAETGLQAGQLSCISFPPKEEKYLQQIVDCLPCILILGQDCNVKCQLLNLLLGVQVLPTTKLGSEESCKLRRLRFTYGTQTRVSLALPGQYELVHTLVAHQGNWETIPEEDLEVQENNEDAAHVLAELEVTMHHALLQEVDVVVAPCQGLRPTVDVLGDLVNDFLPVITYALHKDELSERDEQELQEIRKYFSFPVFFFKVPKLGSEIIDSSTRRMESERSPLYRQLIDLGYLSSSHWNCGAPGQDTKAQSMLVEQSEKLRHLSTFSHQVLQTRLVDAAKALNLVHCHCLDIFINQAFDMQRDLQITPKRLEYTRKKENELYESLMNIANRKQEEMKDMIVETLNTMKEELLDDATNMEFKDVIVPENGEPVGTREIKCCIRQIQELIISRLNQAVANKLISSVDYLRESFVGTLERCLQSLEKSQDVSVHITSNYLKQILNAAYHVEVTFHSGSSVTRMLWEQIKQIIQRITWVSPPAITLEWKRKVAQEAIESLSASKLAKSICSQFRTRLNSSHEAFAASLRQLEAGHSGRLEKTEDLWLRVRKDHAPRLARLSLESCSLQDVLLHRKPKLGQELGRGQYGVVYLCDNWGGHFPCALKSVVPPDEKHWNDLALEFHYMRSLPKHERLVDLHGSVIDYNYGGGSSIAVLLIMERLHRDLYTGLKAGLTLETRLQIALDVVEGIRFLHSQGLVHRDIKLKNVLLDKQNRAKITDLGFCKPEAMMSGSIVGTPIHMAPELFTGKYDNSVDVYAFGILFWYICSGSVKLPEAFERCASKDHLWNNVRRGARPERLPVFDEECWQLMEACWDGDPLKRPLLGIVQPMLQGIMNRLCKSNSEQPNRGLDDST
Sequence of RSK4(Kin.Dom.2-C-terminal) (Q9UK32 426-683): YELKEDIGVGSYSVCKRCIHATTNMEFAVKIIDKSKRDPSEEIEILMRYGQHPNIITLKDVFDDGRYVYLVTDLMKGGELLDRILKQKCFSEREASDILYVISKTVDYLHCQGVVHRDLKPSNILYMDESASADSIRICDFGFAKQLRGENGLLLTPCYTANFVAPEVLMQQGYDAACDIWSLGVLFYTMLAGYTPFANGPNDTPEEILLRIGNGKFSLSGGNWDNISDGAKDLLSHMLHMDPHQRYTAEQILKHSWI

Row | Compound | remaining binding at 10 µM [1] [%] | remaining binding at 10 µM [2] [%] | remaining binding at 10 µM [3] [%] | remaining binding at 10 µM [4] [%] | remaining binding at 10 µM [5] [%] | remaining binding at 10 µM [6] [%] | remaining binding at 10 µM [7] [%] | remaining binding at 10 µM [8] [%] | remaining binding at 10 µM [9] [%] | remaining binding at 10 µM [10] [%] | remaining binding at 10 µM [11] [%] | remaining binding at 10 µM [12] [%] | remaining binding at 10 µM [13] [%] | remaining binding at 10 µM [14] [%] | remaining binding at 10 µM [15] [%] | remaining binding at 10 µM [16] [%] | remaining binding at 10 µM [17] [%] | remaining binding at 10 µM [18] [%] | remaining binding at 10 µM [19] [%] | remaining binding at 10 µM [20] [%] | other results
1 | COc1cc(N2CCC(N3CCN(C)CC3)CC2)ccc1Nc1ncc2c(n1)N(C)c1sc(C)nc1C(=O)N2 [Compound 3, 6-((2-methoxy-4-(4-(4-methylpiperazin-1-yl)piperidin-1-yl)phenyl)amino)-2,4-dimethyl-4,9-dihydro-10H-pyrimido[5,4-b]thiazolo[5,4-e][1,4]diazepin-10-one] | 81 | 100 | 100 | 100 | 67 | 100 | 97 | 79 | 22 | 100 | 89 | 96 | 69 | 87 | 100 | 61 | 100 | 100 | 98 | 100 | remaining binding at 10 µM [21]: 100%; remaining binding at 10 µM [22]: 100%; remaining binding at 10 µM [23]: 73%; remaining binding at 10 µM [24]: 85%; remaining binding at 10 µM [25]: 55%; remaining binding at 10 µM [26]: 70%; remaining binding at 10 µM [27]: 83%; remaining binding at 10 µM [28]: 95%; remaining binding at 10 µM [29]: 100%; remaining binding at 10 µM [30]: 78%; remaining binding at 10 µM [31]: 69%; remaining binding at 10 µM [32]: 4.3%; remaining binding at 10 µM [33]: 79%; Percent Control [34]: 83%
2 | COc1cc(N2CCC(N3CCN(C)CC3)CC2)ccc1Nc1ncc2c(n1)N(C)c1sc(C)nc1C(=O)N2C [Compound 5, 6-((2-methoxy-4-(4-(4-methylpiperazin-1-yl)piperidin-1-yl)phenyl)amino)-2,4,9-trimethyl-4,9-dihydro-10H-pyrimido[5,4-b]thiazolo[5,4-e][1,4]diazepin-10-one] | 100 | 100 | 100 | 88 | 79 | 100 | 97 | 88 | 100 | 100 | 100 | 98 | 67 | 99 | 0.7 | 100 | 60 | 100 | 32 | 99 | remaining binding at 10 µM [21]: 93%; remaining binding at 10 µM [22]: 100%; remaining binding at 10 µM [23]: 100%; remaining binding at 10 µM [24]: 95%; remaining binding at 10 µM [25]: 95%; remaining binding at 10 µM [26]: 100%; remaining binding at 10 µM [27]: 100%; remaining binding at 10 µM [28]: 93%; remaining binding at 10 µM [29]: 100%; remaining binding at 10 µM [30]: 92%; remaining binding at 10 µM [31]: 95%; remaining binding at 10 µM [32]: 100%; remaining binding at 10 µM [33]: 99%; Percent Control [34]: 100%
